Measurements: article PMC7565988, “Insight into the Anticancer Activity of Copper(II) 5-Methylenetrimethylammonium-Thiosemicarbazonates and Their Interaction with Organic Cation Transporters” (Biomolecules, 2020)
Like-named read-outs stand apart in the source and are kept apart here.

How the values were obtained:
[1] = tested on: Colo 320 multidrug resistant colonic adenocarcinoma cells (overexpressing ABCB1 (MDR1)-LRP); assay: MTT cytotoxicity (24 h) / antiproliferation (72 h) assay; format: cell-based; settings: Homo sapiens, read-out: Colo320 IC50
Protocol: Human doxorubicin-sensitive Colo 205 (ATCC-CCL-222) and multidrug resistant Colo 320 (overexpressing ABCB1 (MDR1)-LRP (ATCC-CCL-220.1)) colonic adenocarcinoma cell lines were purchased from LGC Promochem, Teddington, UK. The cells were cultured in RPMI 1640 medium supplemented with 10% heat-inactivated fetal bovine serum, 2 mM L-glutamine, 1 mM Na-pyruvate and 100 mM Hepes. The cell lines were incubated at 37 °C, in a 5% CO2, 95% air atmosphere. The semi-adherent human colon cancer cells were detached with Trypsin-Versene (EDTA) solution for 5 min at 37 °C.
In the study non-cancerous human embryonic lung fibroblast MRC-5, human colonic adenocarcinoma cell line (doxorubicin-sensitive Colo 205, multidrug resistant Colo 320) and neuroblastoma cell line SH-SY5Y were used to determine the effect of compounds on cell growth. The effects of increasing concentrations of compounds on cell growth were tested in 96-well flat-bottomed microtiter plates. The compounds were diluted in a volume of 100 μL of medium.
In case of the colonic adenocarcinoma cells, the two-fold serial dilutions of compounds were prepared in 100 μL of RPMI 1640, horizontally. The semi-adherent colonic adenocarcinoma cells were treated with Trypsin–Versene (EDTA) solution. The cells were adjusted to a density of 2 × 10^4 cells in 100 μL of RPMI 1640 medium, and were added to each well, with the exception of the medium control wells. The final volume of the wells containing compounds and cells was 200 μL.
The culture plates were incubated at 37 °C for 24 h; at the end of the incubation period, 20 μL of MTT (thiazolyl blue tetrazolium bromide, Sigma) solution (from a stock solution of 5 mg/mL) were added to each well. After incubation at 37 °C for 4 h, 100 μL of sodium dodecyl sulfate (SDS) (Sigma) solution (10% in 0.01 M HCI) were added to each well and the plates were further incubated at 37 °C overnight. Cell growth was determined by measuring the optical density (OD) at 540/630 nm with Multiscan EX ELISA reader (Thermo Labsystems, Cheshire, WA, USA). […] Curves were fitted by GraphPad Prism software using the sigmoidal dose-response model (comparing variable and fixed slopes).
The method is similar to the one described in the assay for cytotoxic effect. […] The culture plates were incubated at 37 °C for 72 h and after the incubation time, the plates were stained with MTT according to the previous experimental protocol described for the cytotoxicity assay.

[2] = ABTS decolourisation assay, Trolox equivalent antioxidant capacity; settings: water/DMSO (20% v/v), absorbance at 735 nm
Protocol: (§1) The generation of paramagnetic intermediates was monitored by cw-EPR spectroscopy using the EMXplus spectrometer and spin trapping technique. Deionised water was used for preparation of aqueous solutions. The spin trapping agent 5,5-dimethyl-1-pyrroline N-oxide (DMPO; Sigma-Aldrich) was distilled prior to the application. The EPR spectra were measured with following experimental parameters: X-band, room temperature, microwave frequency, 9.448 GHz; 100 kHz field modulation amplitude, 2 G; time constant, 10 ms; scan time, 21 s (three scans). Glutathione from Sigma-Aldrich; 6-hydroxy-2,5,7,8-tetramethylchroman-2-carboxylic acid (Trolox, 97%, Sigma-Aldrich); K2S2O8 (p.a. purity, Merck); 2,2′-azinobis [3-ethylbenzothiazoline-6-sulfonic acid] (ABTS; purum, >99%; Fluka) were used as received. Deionised high-purity grade H2O, with conductivity of […], was produced by using the TKA H2O purification system (Water Purification Systems GmbH, D-Niederelbert). For the ABTS decolourisation assay, the radical cations were pre-formed by the reaction of an aqueous solution of K2S2O8 (3.30 mg) in H2O (5 mL) with ABTS (17.2 mg). The resulting bluish-green radical cation (ABTS^•+) solution was stored overnight in the dark. […] The optical spectra were recorded from 1 to 40 min in 1 cm quartz UV cuvette after mixing the sample water/DMSO solution with ABTS^•+ in mixed solvent water/DMSO (20% (v/v)).

[3] = 1H NMR titration, pKa of E/Z isomers; format: physicochemical; settings: 10% D2O/H2O, cL = 200 μM, I = 0.1 M (KCl), 25 °C
Protocol: ^1H NMR spectroscopic studies were carried out on a Bruker Avance III HD instrument (Bruker BioSpin GmbH, Rheinstetten, Germany). All spectra were recorded with the WATERGATE water suppression pulse scheme using DSS internal standard.

[4] = EPR spin trapping (DMPO/H2O2), ROS generation in cell-free media; settings: DMPO/H2O2 aqueous system
Protocol: as §1

SMILES	IC50 ([1]; 24 h exposure) [µM]	IC50 ([1]; 72 h exposure) [µM]	Trolox equivalent antioxidant capacity (TEAC) [2]	pKa ([3]; read-out: pKa of major E isomer)	pKa ([3]; read-out: pKa of minor Z isomer)	radical formation [4]
C[N+](C)(C)Cc1ccc(O)c(/C=N/NC(=S)Nc2ccccc2)c1 [[H2L^Ph]Cl]	> 100	95.8 ± 1.58	–	–	–	–
CNC(=S)N/N=C/c1cc(C[N+](C)(C)C)ccc1O [[H2L^Me]Cl]	> 100	74.4 ± 3.85	–	–	–	–
C[N+](C)(C)Cc1ccc(O)c(/C=N/NC(N)=S)c1 [[H2L^H]Cl]	> 100	88.8 ± 5.32	0.74	7.51	6.95	no radical formation
CCNC(=S)N/N=C/c1cc(C[N+](C)(C)C)ccc1O [[H2L^Et]Cl]	63.8 ± 3.92	53.3 ± 2.44	–	–	–	–
